Patent US12180187B2, “1-phenyl-5-azinylpyrazolyl-3-oxyalkyl acids and their use for controlling unwanted plant growth” (BAYER AKTIENGESELLSCHAFT, priority 2019, dated 2024)

How the values were obtained:
ALOMY [1] = assay: Post-emergence action against ALOMY, 320 g/ha; type: in vivo, Alopecurus myosuroides; conditions: dosage 320 g/ha, visual rating about 3 weeks after treatment vs untreated controls (100% = plants died)
Text: (§1) Accordingly, the compounds of the invention have good herbicidal action against a broad spectrum of weed grasses and broad-leaved weeds and are therefore suitable for controlling unwanted vegetation by the post-emergence method. • b) Seeds of monocotyledonous and dicotyledonous weeds and crop plants are placed in sandy loam in plastic or organic planting pots, covered with soil and cultivated in a greenhouse under controlled growth conditions. 2 to 3 weeks after sowing, the test plants are treated at the one-leaf stage. The compounds of the invention, formulated in the form of wettable powders (WP) or as emulsion concentrates (EC), are then sprayed onto the green parts of the plants as aqueous suspension or emulsion with addition of 0.5% additive at a water application rate of 600 l/ha (converted). After the test plants have been kept in the greenhouse under optimum growth conditions for about 3 weeks, the activity of the preparations is rated visually in comparison to untreated controls. For example, 100% activity=the plants have died, 0% activity=like control plants. Tables 39 to 49 below show the effects of selected compounds of the general formula (I) according to Tables 1 and 2 on various harmful plants and at an application rate corresponding to 320 g/ha, which were obtained by the experimental procedure mentioned above.

POLCO [2] = assay: Pre-emergence action at 320 g/ha against POLCO; type: in vivo, Fallopia convolvulus (Polygonum convolvulus); conditions: visual scoring after about 3 weeks vs untreated controls
Procedure, shortened: (§2)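 Pre-emergence soil-surface spray: WP or EC formulation, aqueous, 0.5% additive, 600 l/ha water volume. Greenhouse growth about 3 weeks; visual percent effect relative to untreated pots.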

MATIN [3] = assay: Pre-emergence action against MATIN, 1280 g/ha; type: in vivo, Tripleurospermum inodorum (Matricaria inodora); conditions: scored visually after about 3 weeks vs untreated controls (100% = plants have died)
Procedure, shortened: (§3)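 Visual % scoring, roughly 3 weeks post-application, against untreated controls; 100% means plants died. Treatment went onto the soil covering sown seeds (sandy loam), as aqueous suspension or emulsion plus 0.5% additive.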

SETVI [4] = assay: Pre-emergence action at 320 g/ha against SETVI; type: in vivo, Setaria viridis; conditions: visual scoring after about 3 weeks vs untreated controls
Procedure, shortened: as §2

SETVI [5] = assay: Post-emergence action at 320 g/ha against SETVI; type: in vivo, Setaria viridis; conditions: visual rating about 3 weeks after treatment vs untreated controls
Text: as §1

VIOTR [6] = assay: Pre-emergence action at 320 g/ha against VIOTR; type: in vivo, Viola tricolor; conditions: dosage 320 g/ha
Procedure, shortened: as §2

AMARE [7] = assay: Pre-emergence action against AMARE, 1280 g/ha; type: in vivo, Amaranthus retroflexus; conditions: scored visually after about 3 weeks vs untreated controls (100% = plants have died)
Procedure, shortened: as §3

LOLRI [8] = assay: Pre-emergence action at 320 g/ha against LOLRI; type: in vivo, Lolium rigidum; conditions: visual scoring after about 3 weeks vs untreated controls
Procedure, shortened: as §2

DIGSA [9] = assay: Post-emergence action against DIGSA, 1.28 kg/ha; type: in vivo, Digitaria sanguinalis; conditions: dosage 1280 g/ha, visual rating about 3 weeks after treatment vs untreated controls
Procedure, shortened: (§4)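 Foliar application at the one-leaf stage: compound as WP or EC in water with 0.5% additive, sprayed at 600 L/ha. Plants are kept about 3 weeks in the greenhouse, then % herbicidal action is estimated visually (100% = death).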

ECHGC = assay: Pre-emergence action at 320 g/ha against ECHGC; type: in vivo, Echinochloa crus-galli; conditions: visual scoring after about 3 weeks vs untreated controls
Procedure, shortened: as §2

KCHSC [10] = assay: Pre-emergence action against KCHSC, 1280 g/ha; type: in vivo, Bassia scoparia; conditions: scored visually after about 3 weeks vs untreated controls (100% = plants have died)
Procedure, shortened: as §3

ALOMY [11] = assay: Pre-emergence action against ALOMY, 1280 g/ha; type: in vivo, Alopecurus myosuroides; conditions: visual scoring after about 3 weeks vs untreated controls, 100% = plants have died, 0% = like control plants
Procedure, shortened: as §3

VERPE [12] = assay: Pre-emergence action at 320 g/ha against VERPE; type: in vivo, Veronica persica; conditions: visual scoring after about 3 weeks vs untreated controls
Procedure, shortened: as §2

ECHCG [13] = assay: Pre-emergence action against ECHCG, 1280 g/ha; type: in vivo, Echinochloa crus-galli; conditions: visual scoring after about 3 weeks vs untreated controls, 100% = plants have died, 0% = like control plants
Procedure, shortened: as §3

AMARE [14] = assay: Pre-emergence action at 320 g/ha against AMARE; type: in vivo, Amaranthus retroflexus; conditions: visual scoring after about 3 weeks vs untreated controls
Procedure, shortened: as §2

MATIN [15] = assay: Pre-emergence action at 320 g/ha against MATIN; type: in vivo, Tripleurospermum inodorum (Matricaria inodora); conditions: visual scoring after about 3 weeks vs untreated controls
Procedure, shortened: as §2

MATIN [16] = assay: Post-emergence action against MATIN, 1.28 kg/ha; type: in vivo, Tripleurospermum inodorum (Matricaria inodora); conditions: dosage 1280 g/ha, visual rating about 3 weeks after treatment vs untreated controls (100% = plants died)
Procedure, shortened: as §4

ALOMY [17] = assay: Pre-emergence action at 320 g/ha against ALOMY; type: in vivo, Alopecurus myosuroides; conditions: scored visually after about 3 weeks vs untreated controls (100% = plants have died)
Procedure, shortened: as §2

ECHCG [18] = assay: Post-emergence action against ECHCG, 1.28 kg/ha; type: in vivo, Echinochloa crus-galli; conditions: dosage 1280 g/ha, visual rating about 3 weeks after treatment vs untreated controls
Procedure, shortened: as §4

STEME [19] = assay: Post-emergence action against STEME, 1.28 kg/ha; type: in vivo, Stellaria media; conditions: dosage 1280 g/ha, visual rating about 3 weeks after treatment vs untreated controls (100% = plants died)
Procedure, shortened: as §4

KCHSC [20] = assay: Post-emergence action against KCHSC, 1.28 kg/ha; type: in vivo, Bassia scoparia; conditions: dosage 1280 g/ha, visual rating about 3 weeks after treatment vs untreated controls (100% = plants died)
Procedure, shortened: as §4

AVEFA [21] = assay: Pre-emergence action at 320 g/ha against AVEFA; type: in vivo; conditions: visual scoring after about 3 weeks vs untreated controls
Procedure, shortened: as §2

LOLRI [22] = assay: Pre-emergence action against LOLRI, 1280 g/ha; type: in vivo, Lolium rigidum; conditions: visual scoring after about 3 weeks vs untreated controls, 100% = plants have died, 0% = like control plants
Procedure, shortened: as §3

VERPE [23] = assay: Pre-emergence action against VERPE, 1280 g/ha; type: in vivo, Veronica persica; conditions: scored visually after about 3 weeks vs untreated controls (100% = plants have died)
Procedure, shortened: as §3

STEME [24] = assay: Pre-emergence action against STEME, 1280 g/ha; type: in vivo, Stellaria media; conditions: scored visually after about 3 weeks vs untreated controls (100% = plants have died)
Procedure, shortened: as §3

SETVI [25] = assay: Pre-emergence action against SETVI, 1280 g/ha; type: in vivo, Setaria viridis; conditions: visual scoring after about 3 weeks vs untreated controls, 100% = plants have died, 0% = like control plants
Procedure, shortened: as §3

POAAN [26] = assay: Pre-emergence action against POAAN, 1280 g/ha; type: in vivo, Poa annua; conditions: visual scoring after about 3 weeks vs untreated controls, 100% = plants have died, 0% = like control plants
Procedure, shortened: as §3

DIGSA [27] = assay: Pre-emergence action at 320 g/ha against DIGSA; type: in vivo, Digitaria sanguinalis; conditions: visual scoring after about 3 weeks vs untreated controls
Procedure, shortened: as §2

LOLRI [28] = assay: Post-emergence action against LOLRI, 1.28 kg/ha; type: in vivo, Lolium rigidum; conditions: dosage 1280 g/ha, visual rating about 3 weeks after treatment vs untreated controls
Procedure, shortened: as §4

DIGSA [29] = assay: Post-emergence action at 320 g/ha against DIGSA; type: in vivo, Digitaria sanguinalis; conditions: dosage 320 g/ha, visual rating about 3 weeks after treatment vs untreated controls (100% = plants died)
Text: as §1

DIGSA [30] = assay: Pre-emergence action against DIGSA, 1280 g/ha; type: in vivo, Digitaria sanguinalis; conditions: visual scoring after about 3 weeks vs untreated controls, 100% = plants have died, 0% = like control plants
Procedure, shortened: as §3

POAAN [31] = assay: Post-emergence action against POAAN, 1.28 kg/ha; type: in vivo, Poa annua; conditions: dosage 1280 g/ha, visual rating about 3 weeks after treatment vs untreated controls
Procedure, shortened: as §4

VIOTR [32] = assay: Post-emergence action at 320 g/ha against VIOTR; type: in vivo, Viola tricolor; conditions: visual rating about 3 weeks after treatment vs untreated controls
Text: as §1

AMARE [33] = assay: Post-emergence action at 320 g/ha against AMARE; type: in vivo, Amaranthus retroflexus; conditions: visual rating about 3 weeks after treatment vs untreated controls
Text: as §1

AMARE [34] = assay: Post-emergence action against AMARE, 1.28 kg/ha; type: in vivo, Amaranthus retroflexus; conditions: dosage 1280 g/ha, visual rating about 3 weeks after treatment vs untreated controls (100% = plants died)
Procedure, shortened: as §4

POLCO [35] = assay: Post-emergence action at 320 g/ha against POLCO; type: in vivo, Fallopia convolvulus (Polygonum convolvulus); conditions: visual rating about 3 weeks after treatment vs untreated controls
Text: as §1

VERPE [36] = assay: Post-emergence action against VERPE, 1.28 kg/ha; type: in vivo, Veronica persica; conditions: dosage 1280 g/ha, visual rating about 3 weeks after treatment vs untreated controls (100% = plants died)
Procedure, shortened: as §4

AVEFA [37] = assay: Post-emergence action at 320 g/ha against AVEFA; type: in vivo; conditions: visual rating about 3 weeks after treatment vs untreated controls
Text: as §1

SETVI [38] = assay: Post-emergence action against SETVI, 1.28 kg/ha; type: in vivo, Setaria viridis; conditions: dosage 1280 g/ha, visual rating about 3 weeks after treatment vs untreated controls
Procedure, shortened: as §4

Structure (SMILES)	Post-emergence action against ALOMY (ALOMY [1]) [%]	Pre-emergence action against POLCO in % (POLCO [2]) [%]	Pre-emergence action against MATIN (MATIN [3]) [%]	Pre-emergence action against SETVI in % (SETVI [4]) [%]	Pre-emergence action against VIOTR in % (VIOTR [6]) [%]	Pre-emergence action against AMARE (AMARE [7]) [%]	Pre-emergence action against VERPE in % (VERPE [12]) [%]	Pre-emergence action against ECHCG (ECHCG [13]) [%]	Pre-emergence action against AMARE in % (AMARE [14]) [%]	Post-emergence action against MATIN (MATIN [16]) [%]	Pre-emergence action at 320 g/ha against ALOMY in % (ALOMY [17]) [%]	Post-emergence action against ECHCG (ECHCG [18]) [%]	Post-emergence action against STEME (STEME [19]) [%]	Pre-emergence action against LOLRI (LOLRI [22]) [%]	Pre-emergence action against VERPE (VERPE [23]) [%]	Pre-emergence action against STEME (STEME [24]) [%]	Pre-emergence action against SETVI (SETVI [25]) [%]	Pre-emergence action against POAAN (POAAN [26]) [%]	Pre-emergence action against DIGSA in % (DIGSA [27]) [%]	Post-emergence action against LOLRI (LOLRI [28]) [%]	further results
CC(Oc1nn(-c2ccccc2F)c(-c2ccc(F)nc2)c1I)C(=O)O (stereo not drawn) [VII-118]	90	100	100	90	100	100	90	100	100	90	100	100	100	100	100	100	100	100	100	100	Post-emergence action against SETVI in % (SETVI [5]): 80%; Pre-emergence action against LOLRI in % (LOLRI [8]): 100%; Post-emergence action against DIGSA (DIGSA [9]): 100%; Pre-emergence action against ECHGC in % (ECHGC): 90%; Pre-emergence action against KCHSC (KCHSC [10]): 100%; Pre-emergence action against ALOMY (ALOMY [11]): 100%; Pre-emergence action against MATIN in % (MATIN [15]): 90%; Post-emergence action against KCHSC (KCHSC [20]): 90%; Pre-emergence action against AVEFA in % (AVEFA [21]): 100%; Post-emergence action at 320 g/ha against DIGSA in % (DIGSA [29]): 90%; Pre-emergence action against DIGSA (DIGSA [30]): 100%; Post-emergence action against POAAN (POAAN [31]): 100%
CCOC(=O)COc1nn(-c2ccccc2F)c(-c2ccnc(F)c2)c1Br [VIII-002]	90	90	100	100	100	100	80	100	100	90	90	100	100	100	90	90	100	100	100	100	Post-emergence action against VIOTR in % (VIOTR [32]): 80%; Post-emergence action against AMARE in % (AMARE [33]): 80%; Post-emergence action against AMARE (AMARE [34]): 100%; Post-emergence action against POLCO in % (POLCO [35]): 80%; Post-emergence action against VERPE (VERPE [36]): 90%; Post-emergence action against AVEFA in % (AVEFA [37]): 90%; Post-emergence action against SETVI (SETVI [38]): 90%; Post-emergence action against POAAN (POAAN [31]): 100%
